According to PubChem BioAssay (NCI):
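Step 1: Grow cells in 96-well plates. Step 2: Expose to compound for 48 hours at 5 concentrations. Step 3: Interpolate endpoints linearly; if unreached, use highest concentration. TGI denotes the concentration required for complete inhibition of growth.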

Key:
Experiment in all cases: NCI anticancer screen, dose series, 48 h
[1] = test system: HOP-62 NSCLC
[2] = test system: BT-549 breast
[3] = test system: MDA-N
[4] = test system: UO-31 renal
[5] = test system: MCF7 breast
[6] = test system: SK-OV-3 ovarian
[7] = test system: DU-145 prostate
[8] = test system: NCI-H522 lung
[9] = test system: OVCAR-4 ovarian
[10] = test system: HCT-15 colon
[11] = test system: SW-620 colon
[12] = test system: K-562 leukemia
[13] = test system: MDA-MB-231 breast
[14] = test system: IGROV1 ovarian
[15] = test system: HT29 colon
[16] = test system: CCRF-CEM leukemia
[17] = test system: ACHN renal
[18] = test system: SN12C renal
[19] = test system: SNB-19 CNS
[20] = test system: HCC-2998 colon
[21] = test system: NCI-H23 lung
[22] = test system: A549 NSCLC
[23] = test system: PC-3 prostate
[24] = test system: OVCAR-5 ovarian
[25] = test system: HOP-92 NSCLC
[26] = test system: SF-295 CNS
[27] = test system: MDA-MB-435
[28] = test system: OVCAR-3 ovarian
[29] = test system: HS 578T breast
[30] = test system: NCI-H460 lung
[31] = test system: UACC-257 melanoma
[32] = test system: LOX IMVI melanoma
[33] = test system: T-47D breast
[34] = test system: SNB-75 CNS
[35] = test system: 786-0 renal
[36] = test system: MALME-3M melanoma
[37] = test system: TK-10 renal
[38] = test system: HCT-116 colon
[39] = test system: EKVX NSCLC
[40] = test system: SK-MEL-5 melanoma
[41] = test system: SF-268 CNS
[42] = test system: U251 CNS
[43] = test system: OVCAR-8 ovarian
[44] = test system: CAKI-1 renal
[45] = test system: M14 melanoma
[46] = test system: UACC-62 melanoma
[47] = test system: RXF 393 renal
[48] = test system: COLO 205 colon
[49] = test system: MOLT-4 leukemia
[50] = test system: SK-MEL-2 melanoma
[51] = test system: SK-MEL-28 melanoma
[52] = test system: NCI/ADR-RES ovarian
[53] = test system: KM12 colon
[54] = test system: SF-539 CNS
[55] = test system: NCI-H226 lung
[56] = test system: HL-60(TB) leukemia
[57] = test system: A498 renal
[58] = test system: RPMI-8226 leukemia
[59] = test system: SR leukemia

`COc1ccc(-c2c(/C=N/OCC(=O)O)c3sc4ccccc4n3c2/C=N/OCC(=O)O)cc1` was tested, and the TGI [1] was > 50 µM, the TGI [2] was > 50 µM and the TGI [3] was > 50 µM. The TGI [4] was > 50 µM, the TGI [5] was > 50 µM and the TGI [6] was > 50 µM. The TGI [7] was > 50 µM, the TGI [8] was > 50 µM and the TGI [9] was > 50 µM. For the same molecule, the TGI [10] was > 50 µM, the TGI [11] was > 50 µM and the TGI [12] was > 50 µM. For the same molecule, the TGI [13] was > 50 µM, the TGI [14] was > 50 µM and the TGI [15] was > 50 µM. The TGI [16] was > 50 µM, the TGI [17] was > 50 µM and the TGI [18] was > 50 µM. For the same molecule, the TGI [19] was > 50 µM, the TGI [20] was > 50 µM and the TGI [21] was > 50 µM. For the same molecule, the TGI [22] was > 50 µM, the TGI [23] was > 50 µM and the TGI [24] was > 50 µM. For the same molecule, the TGI [25] was > 50 µM, the TGI [26] was > 50 µM and the TGI [27] was > 50 µM. For the same molecule, the TGI [28] was > 50 µM, the TGI [29] was > 50 µM and the TGI [30] was > 50 µM. For the same molecule, the TGI [31] was > 50 µM, the TGI [32] was > 50 µM and the TGI [33] was > 50 µM. The TGI [34] was > 50 µM, the TGI [35] was > 50 µM and the TGI [36] was > 50 µM. The TGI [37] was > 50 µM, the TGI [38] was > 50 µM and the TGI [39] was > 50 µM. The TGI [40] was > 50 µM, the TGI [41] was > 50 µM and the TGI [42] was > 50 µM. The TGI [43] was > 50 µM, the TGI [44] was > 50 µM and the TGI [45] was > 50 µM. The TGI [46] was > 50 µM, the TGI [47] was > 50 µM and the TGI [48] was > 50 µM. The TGI [49] was > 50 µM, the TGI [50] was > 50 µM and the TGI [51] was > 50 µM. The TGI [52] was > 50 µM and the TGI [53] was > 50 µM.
For `O=C(NNC(=O)c1ccncc1)C(=O)Nc1cc(Cl)c(Cl)cc1Cl`, the TGI [1] was > 100 µM, the TGI [2] was > 100 µM and the TGI [54] was > 100 µM. The TGI [3] was > 100 µM, the TGI [55] was > 100 µM and the TGI [4] was > 100 µM. The TGI [5] was > 100 µM, the TGI [6] was > 100 µM and the TGI [8] was > 100 µM. The TGI [9] was > 100 µM, the TGI [10] was > 100 µM and the TGI [11] was > 100 µM. For the same molecule, the TGI [12] was > 100 µM, the TGI [56] was > 100 µM and the TGI [13] was > 100 µM. For the same molecule, the TGI [14] was > 100 µM, the TGI [15] was > 100 µM and the TGI [17] was > 100 µM. For the same molecule, the TGI [18] was > 100 µM, the TGI [19] was > 100 µM and the TGI [20] was 57.8 µM. The TGI [21] was > 100 µM, the TGI [22] was > 100 µM and the TGI [23] was > 100 µM. The TGI [24] was > 100 µM, the TGI [25] was > 100 µM and the TGI [57] was > 100 µM. The TGI [26] was > 100 µM, the TGI [27] was > 100 µM and the TGI [28] was > 100 µM. For the same molecule, the TGI [29] was > 100 µM, the TGI [30] was > 100 µM and the TGI [31] was > 100 µM. For the same molecule, the TGI [32] was > 100 µM, the TGI [33] was > 100 µM and the TGI [58] was > 100 µM. The TGI [34] was > 100 µM, the TGI [35] was > 100 µM and the TGI [36] was > 100 µM. For the same molecule, the TGI [37] was > 100 µM, the TGI [38] was > 100 µM and the TGI [39] was > 100 µM. For the same molecule, the TGI [40] was > 100 µM, the TGI [41] was > 100 µM and the TGI [42] was > 100 µM. The TGI [43] was > 100 µM, the TGI [44] was > 100 µM and the TGI [45] was > 100 µM. For the same molecule, the TGI [46] was > 100 µM, the TGI [47] was > 100 µM and the TGI [49] was > 100 µM. The TGI [50] was > 100 µM, the TGI [51] was > 100 µM and the TGI [52] was > 100 µM. The TGI [53] was > 100 µM.
For `N#Cc1nc(CN2C(=O)c3ccccc3C2=O)oc1N`, the TGI [1] was > 100 µM, the TGI [59] was > 100 µM and the TGI [54] was > 100 µM. For the same molecule, the TGI [3] was > 100 µM, the TGI [55] was > 100 µM and the TGI [5] was > 100 µM. For the same molecule, the TGI [6] was > 100 µM, the TGI [7] was > 100 µM and the TGI [8] was > 100 µM. The TGI [9] was > 100 µM, the TGI [10] was > 100 µM and the TGI [11] was > 100 µM. The TGI [12] was > 100 µM, the TGI [13] was > 100 µM and the TGI [14] was > 100 µM. The TGI [15] was > 100 µM, the TGI [16] was > 100 µM and the TGI [17] was > 100 µM. For the same molecule, the TGI [18] was > 100 µM, the TGI [20] was > 100 µM and the TGI [22] was > 100 µM. For the same molecule, the TGI [23] was > 100 µM, the TGI [24] was > 100 µM and the TGI [25] was > 100 µM. The TGI [57] was > 100 µM, the TGI [26] was > 100 µM and the TGI [27] was > 100 µM. The TGI [28] was > 100 µM, the TGI [29] was > 100 µM and the TGI [30] was > 100 µM. The TGI [31] was > 100 µM, the TGI [33] was > 100 µM and the TGI [58] was > 100 µM. The TGI [34] was > 100 µM, the TGI [35] was > 100 µM and the TGI [36] was > 100 µM. For the same molecule, the TGI [37] was > 100 µM, the TGI [38] was > 100 µM and the TGI [40] was > 100 µM. For the same molecule, the TGI [41] was > 100 µM, the TGI [42] was > 100 µM and the TGI [43] was > 100 µM. For the same molecule, the TGI [44] was > 100 µM, the TGI [45] was > 100 µM and the TGI [47] was > 100 µM. The TGI [48] was > 100 µM, the TGI [49] was > 100 µM and the TGI [50] was > 100 µM. For the same molecule, the TGI [51] was > 100 µM, the TGI [52] was > 100 µM and the TGI [53] was > 100 µM.
In the case of `Cc1cc2ccccc2oc(=O)/c1=N\Nc1ccccc1`, the TGI [1] is reported as 46.7 µM, the TGI [59] is reported as > 100 µM and the TGI [2] is reported as > 100 µM. The TGI [54] was > 100 µM, the TGI [3] was > 100 µM and the TGI [55] was > 100 µM. For the same molecule, the TGI [4] was > 100 µM, the TGI [5] was > 100 µM and the TGI [6] was 62.8 µM. The TGI [7] was > 100 µM, the TGI [8] was > 100 µM and the TGI [9] was > 100 µM. The TGI [10] was > 100 µM, the TGI [11] was > 100 µM and the TGI [12] was > 100 µM. The TGI [56] was > 100 µM, the TGI [13] was 77.9 µM and the TGI [14] was > 100 µM. The TGI [15] was > 100 µM, the TGI [16] was > 100 µM and the TGI [17] was > 100 µM. The TGI [18] was > 100 µM, the TGI [19] was > 100 µM and the TGI [20] was > 100 µM. The TGI [21] was > 100 µM, the TGI [22] was > 100 µM and the TGI [23] was > 100 µM. The TGI [24] was > 100 µM, the TGI [25] was > 100 µM and the TGI [57] was > 100 µM. The TGI [26] was > 100 µM, the TGI [27] was > 100 µM and the TGI [28] was > 100 µM. The TGI [30] was > 100 µM, the TGI [31] was > 100 µM and the TGI [32] was > 100 µM. For the same molecule, the TGI [58] was > 100 µM, the TGI [34] was 63.8 µM and the TGI [35] was 97 µM. The TGI [36] was > 100 µM, the TGI [38] was > 100 µM and the TGI [39] was > 100 µM. For the same molecule, the TGI [40] was > 100 µM, the TGI [42] was > 100 µM and the TGI [43] was > 100 µM. For the same molecule, the TGI [44] was > 100 µM, the TGI [45] was > 100 µM and the TGI [46] was > 100 µM. For the same molecule, the TGI [47] was 88.4 µM, the TGI [48] was > 100 µM and the TGI [49] was > 100 µM. The TGI [50] was > 100 µM, the TGI [51] was > 100 µM and the TGI [52] was > 100 µM. The TGI [53] was > 100 µM.
